Data: patent US8912121B2, “Herbicidal compositions comprising 4-amino-3-chloro-5-fluoro-6-(4-chloro-2-fluoro-3-methoxyphenyl)pyridine-2-carboxylic acid or a derivative thereof and certain PS II inhibitors” (Dow Agrosciences LLC, priority 2012, dated 2014)
Several values for one entry are separate records, joined by “and”; a condition that tells them apart may be missing. Equal values may be shown once. Read-outs that look alike come from different tables or passages of the source.

Columns and labels:
Assay in all cases: Postemergence foliar-applied mixtures, direct seeded rice, greenhouse
[1] = system: ECHCG (Echinochloa crusgalli, barnyardgrass); type: in vivo, Echinochloa crusgalli (L.) Beauv.
Protocol: Seeds or nutlets of the desired test plant species were planted in a soil matrix prepared by mixing a loam or sandy loam soil (e.g., 28.6 percent silt, 18.8 percent clay, and 52.6 percent sand, with a pH of about 5.8 and an organic matter content of about 1.8 percent) and calcareous grit in an 80 to 20 ratio. The soil matrix was contained in plastic pots with a volume of 1 quart and a surface area of 83.6 square centimeters (cm^2). […] The plants were grown for 8-22 days in a greenhouse with an approximate 14 h photoperiod which was maintained at about 29° C. during the day and 26° C. during the night. Nutrients (Peters Excel® 15-5-15 5-Ca 2-Mg and iron chelate) were applied in the irrigation solution as needed and water was added on a regular basis. Supplemental lighting was provided with overhead metal halide 1000-Watt lamps as necessary. The plants were employed for testing when they reached the first through fourth true leaf stage.
(§1) Treatments consisted of the acid or esters of 4-amino-3-chloro-5-fluoro-6-(4-chloro-2-fluoro-3-methoxy-phenyl) pyridine-2-carboxylic acid (Compound A), each formulated as an SC (suspension concentrate), and various herbicidal components alone and in combination. Forms of compound A were applied on an acid equivalent basis.
(§2) Other herbicidal components were applied on an active ingredient basis and included Photosystem II (PSII)-inhibiting herbicides propanil formulated as Stam® M4 EC, bentazon-sodium formulated as Basagran®, atrazine formulated as Atrazine 90 WDG, bromoxynil octanoate ester formulated as Buctril®, simetryne (technical grade material), simazine formulated as Princep® Caliber 90, ioxynil (technical grade material), cyanazine (technical grade material), and hexazinone (technical grade material).
(§3) For treatments comprised of formulated compounds, measured amounts of compounds were placed individually in 25 mL glass vials and diluted in a volume of 1.25% (v/v) Agri-Dex® crop oil concentrated to obtain 12× stock solutions. […] Application solutions were prepared by adding an appropriate amount of each stock solution (e.g., 1 mL) and diluted to the appropriate final concentrations with the addition of 10 mL of an aqueous mixture of 1.25% (v/v) crop oil concentrate so that the final spray solutions contained 1.25+/−0.05% (v/v) crop oil concentrate.
(§4) For treatments comprised of technical compounds, weighed amounts can be placed individually in 25 mL glass vials and dissolved in a volume of 97:3 v/v acetone/DMSO to obtain 12× stock solutions. […] Application solutions can be prepared by adding an appropriate amount of each stock solution (e.g., 1 mL) and diluted to the appropriate final concentrations with the addition of 10 mL of an aqueous mixture of 1.5% (v/v) crop oil concentrate so that the final spray solutions contain 1.25% (v/v) crop oil concentrate. When technical materials are used, the concentrated stock solutions can be added to the spray solutions so that the final acetone and DMSO concentrations of the application solutions are 16.2% and 0.5%, respectively.
For treatments comprised of formulated and technical compounds, weighed amounts of the technical materials were placed individually in 25 mL glass vials and dissolved in a volume of 97:3 v/v acetone/DMSO to obtain 12× stock solutions, and measured amounts of the formulated compounds were placed individually in 25 mL glass vials and diluted in a volume of 1.5% (v/v) crop oil concentrate or water to obtain 12× stock solutions. […] Application solutions were prepared by adding an appropriate amount of each stock solution (eg, 1 mL) and diluted to the appropriate final concentrations with the addition of an appropriate amount of an aqueous mixture of 1.5% (v/v) crop oil concentrate so that the final spray solutions contained 1.25% (v/v) crop oil concentrate.

[2] = system: IPOHE (Ipomoea hederacea, ivyleaf morningglory); type: in vivo, Ipomoea hederacea Jacq.; details: post-emergence
Summary of the method: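 Greenhouse plants in loam/grit soil (about 29/26°C, 14 h photoperiod) sprayed post-emergence at first to fourth true leaf stage at 187 L/ha. Compound A dosed as acid equivalent, partner PSII herbicides as active ingredient, alone and in mixtures, in spray solutions containing 1.25% crop oil concentrate.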

[3] = system: ECHCO (Echinochloa colona, junglerice); type: in vivo, Echinochloa colona (L.) Link
Text: Seeds or nutlets of the desired test plant species were planted in a soil matrix prepared by mixing a loam or sandy loam soil (e.g., 28.6 percent silt, 18.8 percent clay, and 52.6 percent sand, with a pH of about 5.8 and an organic matter content of about 1.8 percent) and calcareous grit in an 80 to 20 ratio. The soil matrix was contained in plastic pots with a volume of 1 quart and a surface area of 83.6 square centimeters (cm^2). When required to ensure good germination and healthy plants, a fungicide treatment and/or other chemical or physical treatment was applied. The plants were grown for 8-22 days in a greenhouse with an approximate 14 h photoperiod which was maintained at about 29° C. during the day and 26° C. during the night. Nutrients (Peters Excel® 15-5-15 5-Ca 2-Mg and iron chelate) were applied in the irrigation solution as needed and water was added on a regular basis. Supplemental lighting was provided with overhead metal halide 1000-Watt lamps as necessary. The plants were employed for testing when they reached the first through fourth true leaf stage.
as §1, §2
Treatment requirements were calculated based upon the rates being tested, the concentration of active ingredient or acid equivalent in the formulation, and a 12 mL application volume at a rate of 187 L/ha.
as §3, §4
For treatments comprised of formulated and technical compounds, weighed amounts of the technical materials were placed individually in 25 mL glass vials and dissolved in a volume of 97:3 v/v acetone/DMSO to obtain 12× stock solutions, and measured amounts of the formulated compounds were placed individually in 25 mL glass vials and diluted in a volume of 1.5% (v/v) crop oil concentrate or water to obtain 12× stock solutions. […]

CCC(=O)Nc1ccc(Cl)c(Cl)c1 [Propanil, N-(3,4-dichlorophenyl)propanamide, reference compound]
Visual Weed Control (%) Obs ([1]; 420 g ai/ha, 21 DAA): 10%
Visual Weed Control (%) Obs ([1]; 840 g ai/ha, 21 DAA): 10%
Visual Weed Control (%) Obs ([1]; 1680 g ai/ha, 21 DAA): 40%
pest or weed control at 3360 g/ha ([2]; 480 h, 3360 g ai/ha, 20 DAA, read-out: Visual Weed Control (%) Obs): 40%
pest or weed control at 420 g/ha ([2]; 504 h, 420 g ai/ha, 21 DAA, read-out: Visual Weed Control (%) Obs): 0%
pest or weed control at 840 g/ha ([2]; 504 h, 840 g ai/ha, 21 DAA, read-out: Visual Weed Control (%) Obs): 0%
pest or weed control at 1680 g/ha ([2]; 504 h, 1680 g ai/ha, 21 DAA, read-out: Visual Weed Control (%) Obs): 0%
Visual Weed Control (%) Obs ([3]; 420 g ai/ha, 21 DAA): 10%
Visual Weed Control (%) Obs ([3]; 840 g ai/ha, 21 DAA): 25%
Visual Weed Control (%) Obs ([3]; 1680 g ai/ha, 21 DAA): 25%

CCNc1nc(Cl)nc(NC(C)C)n1 [Atrazine, 6-chloro-N-ethyl-N′-(1-methylethyl)-1,3,5-triazine-2,4-diamine, reference compound]
Visual Weed Control (%) Obs ([1]; 280 g ai/ha, 22 DAA): 0%
Visual Weed Control (%) Obs ([1]; 560 g ai/ha, 22 DAA): 20%
Visual Weed Control (%) Obs ([1]; 1120 g ai/ha, 22 DAA): 70%
Visual Weed Control (%) Obs ([3]; 280 g ai/ha, 22 DAA): 10%
Visual Weed Control (%) Obs ([3]; 560 g ai/ha, 22 DAA): 10%
Visual Weed Control (%) Obs ([3]; 1120 g ai/ha, 22 DAA): 60%

COc1c(Cl)ccc(-c2nc(C(=O)OCc3ccccc3)c(Cl)c(N)c2F)c1F [Compound A Benzyl Ester, benzyl ester of 4-amino-3-chloro-5-fluoro-6-(4-chloro-2-fluoro-3-methoxy-phenyl)pyridine-2-carboxylic acid]
Visual Weed Control (%) Obs ([1]; 4.38 g ae/ha, 21 DAA): 48%
Visual Weed Control (%) Obs ([1]; 8 g ae/ha, 20 DAA): 70%
Visual Weed Control (%) Obs ([1]; 8 g ae/ha, 21 DAA): 45%
Visual Weed Control (%) Obs ([1]; 8 g ae/ha, 22 DAA): 35%
Visual Weed Control (%) Obs ([1]; 8.75 g ae/ha, 21 DAA): 55%
Visual Weed Control (%) Obs ([1]; 16 g ae/ha, 20 DAA): 90%
Visual Weed Control (%) Obs ([1]; 16 g ae/ha, 21 DAA): 85%
Visual Weed Control (%) Obs ([1]; 16 g ae/ha, 22 DAA): 65%
Visual Weed Control (%) Obs ([1]; 17.5 g ae/ha, 21 DAA): 85%
Visual Weed Control (%) Obs ([1]; 32 g ae/ha, 20 DAA): 90%
Visual Weed Control (%) Obs ([1]; 32 g ae/ha, 21 DAA): 90%
Visual Weed Control (%) Obs ([1]; 32 g ae/ha, 22 DAA): 80%
pest or weed control at 32 g/ha ([2]; 480 h, read-out: Visual Weed Control (%) Obs, 32 g ae/ha, 20 DAA): 55%
pest or weed control at 4.38 g/ha ([2]; 504 h, read-out: Visual Weed Control (%) Obs, 4.38 g ae/ha, 21 DAA): 0%
pest or weed control at 8 g/ha ([2]; 504 h, read-out: Visual Weed Control (%) Obs, 8 g ae/ha, 21 DAA): 10%
pest or weed control at 8.75 g/ha ([2]; 504 h, read-out: Visual Weed Control (%) Obs, 8.75 g ae/ha, 21 DAA): 15%
pest or weed control at 16 g/ha ([2]; 504 h, read-out: Visual Weed Control (%) Obs, 16 g ae/ha, 21 DAA): 25%
pest or weed control at 17.5 g/ha ([2]; 504 h, read-out: Visual Weed Control (%) Obs, 17.5 g ae/ha, 21 DAA): 38%
pest or weed control at 17.5 g/ha ([2]; 504 h, read-out: Visual Weed Control (%) Obs, 17.5 g ae/ha, 21 DAA (second set, r27-r31)): 38%
pest or weed control at 32 g/ha ([2]; 504 h, read-out: Visual Weed Control (%) Obs, 32 g ae/ha, 21 DAA): 60%
pest or weed control at 35 g/ha ([2]; 504 h, read-out: Visual Weed Control (%) Obs, 35 g ae/ha, 21 DAA): 55%
Visual Weed Control (%) Obs ([3]; 4.38 g ae/ha, 21 DAA): 60%
Visual Weed Control (%) Obs ([3]; 8 g ae/ha, 20 DAA): 65%
Visual Weed Control (%) Obs ([3]; 8 g ae/ha, 21 DAA): 75% and 50%
Visual Weed Control (%) Obs ([3]; 8.75 g ae/ha, 21 DAA): 68%
Visual Weed Control (%) Obs ([3]; 16 g ae/ha, 20 DAA): 85%
Visual Weed Control (%) Obs ([3]; 16 g ae/ha, 21 DAA): 85% and 65%
Visual Weed Control (%) Obs ([3]; 17.5 g ae/ha, 21 DAA): 83%
Visual Weed Control (%) Obs ([3]; 32 g ae/ha, 20 DAA): 95%
Visual Weed Control (%) Obs ([3]; 32 g ae/ha, 21 DAA): 95% and 85%

CCNc1nc(Cl)nc(NCC)n1 [Simazine, 6-chloro-N,N′-diethyl-1,3,5-triazine-2,4-diamine, reference compound]
Visual Weed Control (%) Obs ([1]; 560 g ai/ha, 20 DAA): 0%
Visual Weed Control (%) Obs ([1]; 1120 g ai/ha, 20 DAA): 0%
Visual Weed Control (%) Obs ([1]; 2240 g ai/ha, 20 DAA): 0%
Visual Weed Control (%) Obs ([3]; 560 g ai/ha, 20 DAA): 0%
Visual Weed Control (%) Obs ([3]; 1120 g ai/ha, 20 DAA): 0%
Visual Weed Control (%) Obs ([3]; 2240 g ai/ha, 20 DAA): 0%

COc1c(Cl)ccc(-c2nc(C(=O)O)c(Cl)c(N)c2F)c1F [Compound A Acid, 4-amino-3-chloro-6-(4-chloro-2-fluoro-3-methoxyphenyl)-5-fluoropyridine-2-carboxylic acid]
Visual Weed Control (%) Obs ([1]; 4.38 g ae/ha, 21 DAA): 33%
Visual Weed Control (%) Obs ([1]; 4.38 g ae/ha, 22 DAA): 20%
Visual Weed Control (%) Obs ([1]; 8.75 g ae/ha, 21 DAA): 55%
pest or weed control at 19.4 g/ha ([2]; 480 h, 19.4 g ae/ha, 20 DAA, read-out: Visual Weed Control (%) Obs): 15%
pest or weed control at 21.2 g/ha ([2]; 480 h, 21.2 g ae/ha, 20 DAA, read-out: Visual Weed Control (%) Obs): 35%
pest or weed control at 42.4 g/ha ([2]; 480 h, 42.4 g ae/ha, 20 DAA, read-out: Visual Weed Control (%) Obs): 55%
pest or weed control at 4.38 g/ha ([2]; 504 h, 4.38 g ae/ha, 21 DAA, read-out: Visual Weed Control (%) Obs): 15%
pest or weed control at 8.75 g/ha ([2]; 504 h, 8.75 g ae/ha, 21 DAA, read-out: Visual Weed Control (%) Obs): 35%
Visual Weed Control (%) Obs ([3]; 4.38 g ae/ha, 21 DAA): 43%
Visual Weed Control (%) Obs ([3]; 4.38 g ae/ha, 22 DAA): 20%
Visual Weed Control (%) Obs ([3]; 8.75 g ae/ha, 21 DAA): 63%
